Here are results for eight molecules from ChEMBL document CHEMBL2074555 (Biochem Pharmacol, 1992).

This data set deals with ATP-dependent translocase ABCB1 (Mus musculus, UniProt P21447). Nature of the data set: TP_TRANSPORTER: increase in Vinblastine intracellular accumulation in F4-6RADR cells. The class given is functional, cell-based.
Sequence of ATP-dependent translocase ABCB1 (P21447 whole entry): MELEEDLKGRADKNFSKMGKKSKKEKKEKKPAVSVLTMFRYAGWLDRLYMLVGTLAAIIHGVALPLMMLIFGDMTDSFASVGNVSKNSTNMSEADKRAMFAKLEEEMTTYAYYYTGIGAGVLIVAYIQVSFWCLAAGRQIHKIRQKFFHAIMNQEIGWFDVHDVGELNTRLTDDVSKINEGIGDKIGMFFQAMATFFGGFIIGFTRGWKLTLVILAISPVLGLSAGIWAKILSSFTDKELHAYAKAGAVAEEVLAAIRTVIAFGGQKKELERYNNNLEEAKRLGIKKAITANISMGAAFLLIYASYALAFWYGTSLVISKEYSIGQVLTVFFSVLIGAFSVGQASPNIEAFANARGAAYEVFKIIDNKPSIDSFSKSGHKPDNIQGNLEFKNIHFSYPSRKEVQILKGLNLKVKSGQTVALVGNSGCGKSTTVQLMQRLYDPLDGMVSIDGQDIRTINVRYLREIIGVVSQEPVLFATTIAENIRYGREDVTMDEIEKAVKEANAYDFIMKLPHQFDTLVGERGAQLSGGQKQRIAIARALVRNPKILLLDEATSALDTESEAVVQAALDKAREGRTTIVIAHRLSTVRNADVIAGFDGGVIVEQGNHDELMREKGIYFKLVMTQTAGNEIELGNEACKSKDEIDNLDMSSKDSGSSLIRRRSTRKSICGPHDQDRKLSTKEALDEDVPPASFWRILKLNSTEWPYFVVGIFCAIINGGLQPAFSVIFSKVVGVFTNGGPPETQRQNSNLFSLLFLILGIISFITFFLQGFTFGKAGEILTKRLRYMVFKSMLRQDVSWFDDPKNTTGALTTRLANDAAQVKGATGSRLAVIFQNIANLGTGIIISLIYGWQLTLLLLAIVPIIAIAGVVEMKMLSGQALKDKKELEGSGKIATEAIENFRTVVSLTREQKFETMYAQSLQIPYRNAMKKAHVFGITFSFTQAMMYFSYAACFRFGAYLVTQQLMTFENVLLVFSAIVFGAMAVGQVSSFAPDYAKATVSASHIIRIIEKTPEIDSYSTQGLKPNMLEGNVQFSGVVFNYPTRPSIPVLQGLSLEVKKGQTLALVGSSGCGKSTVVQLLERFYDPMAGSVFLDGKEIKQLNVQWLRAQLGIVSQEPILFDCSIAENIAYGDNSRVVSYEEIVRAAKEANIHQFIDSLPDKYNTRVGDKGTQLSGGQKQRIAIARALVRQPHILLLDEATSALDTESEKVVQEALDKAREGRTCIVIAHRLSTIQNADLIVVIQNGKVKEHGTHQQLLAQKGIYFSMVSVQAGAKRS

With `COC(=O)C1=C(C)NC(C)=C(C(=O)OC(C)C)C1c1cccc2nonc12` (stereo not drawn) [ISRADIPINE], the Activity entry was “inhibitor [+]”.

As to `COc1ccc(CCN(C)CCCC(C#N)(c2cc(OC)c(OC)c(OC)c2)C(C)C)cc1OC` (stereo not drawn) [GALLOPAMIL], the Activity entry was “inhibitor [+]”.

On to `COc1cccc(CCN(C)CCCC(C#N)(c2ccc(OC)c(OC)c2)C(C)C)c1` (stereo not drawn), for which the Activity result was “inhibitor [+]”.

On to `CCOC(=O)C1=C(C)NC(C)=C(C(=O)OC)C1c1cccc([N+](=O)[O-])c1` (stereo not drawn) [NITRENDIPINE], for which the Activity result is “inhibitor [+]”.

In the case of `COC(=O)C1=C(C)NC(C)=C(C(=O)OCCCN2CCC(c3ccccc3)(c3ccccc3)CC2)[C@H]1c1cccc([N+](=O)[O-])c1` [NIGULDIPINE], the Activity entry is “inhibitor [+]”.

Take `CCOC(=O)C1=C(C)NC(C)=C(C(=O)OC)C1c1cccc(Cl)c1Cl` (stereo not drawn) [FELODIPINE]: the Activity entry was “inhibitor [+]”.

Regarding `CC(C)C(C#N)(CCCN(C)CCc1ccccc1)c1ccccc1` (stereo not drawn) [EMOPAMIL], the Activity entry was “inhibitor [+]”.

On to `COCCOC(=O)C1=C(C)NC(C)=C(C(=O)OC(C)C)C1c1cccc([N+](=O)[O-])c1` (stereo not drawn) [NIMODIPINE], for which the Activity entry was “inhibitor [+]”.
